Reference: patent US20140249135A1, “PIM KINASE INHIBITORS AND METHODS OF THEIR USE” (NOVARTIS AG, priority 2007, published 2014)

How the values were obtained:
Type in all cases: biochemical
Pim2 kinase = Pim2 kinase (Homo sapiens, UniProt Q9P1W9); assay: Pim2 ATP depletion assay; settings: read-out: IC50 (μM) PIM2;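 further: Luciferase-based luminescent readout of ATP remaining after PIM2 phosphorylates a BAD peptide, final 5 nM enzyme, 4 µM ATP, 10 µM peptide, 2.5% DMSO, run to roughly half ATP consumption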
Pim1 kinase = Pim1 kinase (Homo sapiens, UniProt P11309); assay: Pim1 ATP depletion assay; settings: Pim1 ATP depletion assay; read-out: IC50 (μM) PIM1;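 further: Luciferase-luciferin luminescence readout of residual ATP after PIM1 transfers phosphate to a peptide substrate, 40 µM ATP added, reaction run to roughly half ATP consumption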
Pim3 kinase = Pim3 kinase (Homo sapiens, UniProt Q86V86); assay: Pim3 ATP depletion assay; settings: read-out: IC50 (μM) PIM3

Sequence of Pim2 kinase (Q9P1W9 whole entry): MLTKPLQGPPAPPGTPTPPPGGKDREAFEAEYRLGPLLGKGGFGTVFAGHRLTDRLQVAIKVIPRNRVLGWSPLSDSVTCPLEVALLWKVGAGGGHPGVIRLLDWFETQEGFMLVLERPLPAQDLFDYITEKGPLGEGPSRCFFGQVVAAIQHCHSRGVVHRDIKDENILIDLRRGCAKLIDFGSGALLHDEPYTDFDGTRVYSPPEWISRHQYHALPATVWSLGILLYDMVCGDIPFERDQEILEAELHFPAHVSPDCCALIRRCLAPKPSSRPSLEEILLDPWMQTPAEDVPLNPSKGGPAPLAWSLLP
Sequence of Pim1 kinase (P11309 whole entry): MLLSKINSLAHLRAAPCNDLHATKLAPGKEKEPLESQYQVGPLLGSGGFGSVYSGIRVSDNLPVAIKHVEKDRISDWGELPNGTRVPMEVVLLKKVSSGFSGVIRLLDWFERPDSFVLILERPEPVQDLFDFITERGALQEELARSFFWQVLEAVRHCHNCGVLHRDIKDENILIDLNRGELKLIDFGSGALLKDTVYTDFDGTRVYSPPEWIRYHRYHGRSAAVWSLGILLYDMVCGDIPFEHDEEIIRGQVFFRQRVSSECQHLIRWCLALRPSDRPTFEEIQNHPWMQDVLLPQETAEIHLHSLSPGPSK

**Q.** What does the source list for `CC(C)NC(=O)c1ccc(F)c(-c2ccc(N)c(C(=O)Nc3cnccc3N3CC[C@@H](F)[C@H](N)C3)n2)c1` [Example 253, 3-Amino-6-(2-fluoro-5-isopropylcarbamoyl-phenyl)-pyridine-2-carboxylic acid (3-amino-4-fluoro-3,4,5,6-tetra-hydro-2H-[1,4′]bipyridinyl-3′-yl)-amide]?
**A.** IC50 (Pim2 kinase): < 1 µM; IC50 (Pim1 kinase): < 1 µM; IC50 (Pim3 kinase): < 1 µM

**Q.** With `Nc1ccc(-c2ccccc2F)nc1C(=O)Nc1cnccc1N1CCC(F)(F)C(N)C1` (stereo not drawn) [Example 254, 3-Amino-6-(2-fluoro-phenyl)-pyridine-2-carboxylic acid (3-amino-4,4-difluoro-3,4,5,6-tetra-hydro-2H-[1,4′]bipyridinyl-3′-yl)-amide] as the molecule, how does the IC50 (Pim2 kinase) read?
**A.** The IC50 was < 1 µM.

**Q.** What about the IC50 (Pim1 kinase) of the same molecule?
**A.** The IC50 was < 1 µM.

**Q.** What about the IC50 (Pim3 kinase) of the same molecule?
**A.** The IC50 was < 1 µM.

**Q.** How did the IC50 (Pim2 kinase) turn out when `CC(C)NC(=O)c1ccc(F)c(-c2ccc(N)c(C(=O)Nc3cnccc3N3CCC(F)(F)C(N)C3)n2)c1` (stereo not drawn) [Example 255, 3-Amino-6-(2-fluoro-5-isopropylcarbamoyl-phenyl)-pyridine-2-carboxylic acid (3-amino-4,4-difluoro-3,4,5,6-tetra-hydro-2H-[1,4′]bipyridinyl-3′-yl)-amide] was run?
**A.** Its IC50 is < 1 µM.

**Q.** And the IC50 (Pim1 kinase)?
**A.** The IC50 was < 1 µM.

**Q.** And the IC50 (Pim3 kinase)?
**A.** Its IC50 is < 1 µM.

**Q.** What does the source list for `Nc1ccc(-c2nccs2)nc1C(=O)Nc1cnccc1N1CC[C@@H](F)[C@H](N)C1` [Example 257, 3-amino-N-{4-[(3R,4R)-3-amino-4-fluoropiperidin-1-yl]pyridin-3-yl}-6-(1,3-thiazol-2-yl)pyridine-2-carboxamide]?
**A.** IC50 (Pim2 kinase): < 1 µM; IC50 (Pim1 kinase): < 1 µM; IC50 (Pim3 kinase): < 1 µM

**Q.** For `CC(C)NC(=O)c1ccc(F)c(-c2ccc(N)c(C(=O)Nc3cnccc3N3CC[C@H](F)[C@H](N)C3)n2)c1` [Example 258, 3-Amino-6-(2-fluoro-5-isopropylcarbamoyl-phenyl)-pyridine-2-carboxylic acid (3-amino-4-fluoro-3,4,5,6-tetra-hydro-2H-[1,4′]bipyridinyl-3′-yl)-amide], which IC50 (Pim2 kinase) is on record?
**A.** The IC50 was < 1 µM.

**Q.** What about the IC50 (Pim1 kinase) of the same molecule?
**A.** Its IC50 is < 1 µM.

**Q.** What about the IC50 (Pim3 kinase) of the same molecule?
**A.** Its IC50 is < 1 µM.

**Q.** With `Nc1cc(F)c(Br)nc1C(=O)Nc1cnccc1N1CCC[C@H](N)C1` [Example 259, 3-amino-N-{4-[(3S)-3-amino-piperidin-1-yl]pyridin-3-yl}-6-bromo-5-fluoropyridine-2-carboxamide] as the molecule, how does the IC50 (Pim2 kinase) read?
**A.** Its IC50 is < 1 µM.

**Q.** And the IC50 (Pim1 kinase)?
**A.** The IC50 was < 1 µM.

**Q.** And the IC50 (Pim3 kinase)?
**A.** The IC50 was < 1 µM.

**Q.** Which IC50 (Pim2 kinase) does the source give for `Nc1cc(F)cnc1C(=O)Nc1cnccc1N1CCC[C@H](N)C1` [Example 260, 3-amino-N-{4-[(3S)-3-amino-piperidin-1-yl]pyridin-3-yl}-5-fluoropyridine-2-carboxamide] here?
**A.** Its IC50 is < 1 µM.

**Q.** And the IC50 (Pim1 kinase)?
**A.** The IC50 was < 1 µM.

**Q.** And the IC50 (Pim3 kinase)?
**A.** The IC50 was < 1 µM.

**Q.** What does the source list for `Nc1cnc(-c2ccccc2)nc1C(=O)Nc1cnccc1N1CCCC(O)(C(F)(F)F)C1` (stereo not drawn) [Example 262, 5-Amino-2-phenyl-pyrimidine-4-carboxylic acid (3-hydroxy-3-trifluoromethyl-3,4,5,6-tetra-hydro-2H-[1,4′]bipyridinyl-3′-yl)-amide]?
**A.** IC50 (Pim2 kinase): 1 to 10 µM; IC50 (Pim1 kinase): < 1 µM; IC50 (Pim3 kinase): < 1 µM

**Q.** What does the source list for `Nc1cnc(-c2ccccc2F)nc1C(=O)Nc1cnccc1N1CCC[C@H](N)C1` [Example 263, 5-Amino-2-(2-fluoro-phenyl)-pyrimidine-4-carboxylic acid (3-amino-3,4,5,6-tetrahydro-2H-[1,4′]bipyridinyl-3′-yl)-amide]?
**A.** IC50 (Pim2 kinase): < 1 µM; IC50 (Pim1 kinase): < 1 µM; IC50 (Pim3 kinase): < 1 µM

**Q.** With `Nc1cc(-c2ccncc2NC(=O)c2nc(-c3c(F)cccc3F)ccc2N)nc(C(F)(F)F)n1` [Example 266, 3-Amino-6-(2,6-difluoro-phenyl)-pyridine-2-carboxylic acid [4-(6-amino-2-trifluoromethyl-pyrimidin-4-yl)-pyridin-3-yl]-amide] as the molecule, how does the IC50 (Pim2 kinase) read?
**A.** Its IC50 is < 1 µM.

**Q.** And the IC50 (Pim1 kinase)?
**A.** The IC50 was < 1 µM.

**Q.** What about the IC50 (Pim3 kinase) of the same molecule?
**A.** The IC50 was < 1 µM.

**Q.** What does the source list for `COc1cc(-c2ccncc2NC(=O)c2nc(-c3cc(C(=O)NC(C)C)ccc3F)ccc2N)nc(N)n1` [Example 267, 3-Amino-6-(2-fluoro-5-isopropylcarbamoyl-phenyl)-pyridine-2-carboxylic acid [4-(2-amino-6-methoxy-pyrimidin-4-yl)-pyridin-3-yl]-amide]?
**A.** IC50 (Pim2 kinase): < 1 µM; IC50 (Pim1 kinase): < 1 µM; IC50 (Pim3 kinase): < 1 µM

**Q.** Which results are given for `Cc1cc(-c2ccncc2NC(=O)c2nc(-c3ccccc3)ncc2N)cc(N)n1` [Example 269, 5-Amino-2-phenyl-pyrimidine-4-carboxylic acid (6′-amino-2′-methyl-[4,4′]bipyridinyl-3-yl)-amide]?
**A.** IC50 (Pim2 kinase): < 1 µM; IC50 (Pim1 kinase): < 1 µM; IC50 (Pim3 kinase): < 1 µM

**Q.** With `Nc1cnc(-c2c(F)cccc2F)nc1C(=O)Nc1cnccc1N1CCC[C@H](N)C1` [Example 270, 5-Amino-2-(2,6-difluoro-phenyl)-pyrimidine-4-carboxylic acid (3-amino-3,4,5,6-tetrahydro-2H-[1,4′]bipyridinyl-3′-yl)-amide] as the molecule, how does the IC50 (Pim2 kinase) read?
**A.** Its IC50 is < 1 µM.

**Q.** What about the IC50 (Pim1 kinase) of the same molecule?
**A.** The IC50 was < 1 µM.

**Q.** What about the IC50 (Pim3 kinase) of the same molecule?
**A.** Its IC50 is < 1 µM.

**Q.** What does the source list for `COc1nc(N)cc(-c2ccncc2NC(=O)c2nc(-c3c(F)cccc3F)ccc2N)n1` [Example 271, 3-Amino-6-(2,6-difluoro-phenyl)-pyridine-2-carboxylic acid [4-(6-amino-2-methoxy-pyrimidin-4-yl)-pyridin-3-yl]-amide]?
**A.** IC50 (Pim2 kinase): < 1 µM; IC50 (Pim1 kinase): < 1 µM; IC50 (Pim3 kinase): < 1 µM

**Q.** How did the IC50 (Pim2 kinase) turn out when `Cc1nc(N)cc(-c2ccncc2NC(=O)c2nc(-c3ccccc3F)ncc2N)n1` [Example 272, 5-Amino-2-(2-fluoro-phenyl)-pyrimidine-4-carboxylic acid [4-(6-amino-2-methyl-pyrimidin-4-yl)-pyridin-3-yl]-amide] was run?
**A.** The IC50 was < 1 µM.

**Q.** And the IC50 (Pim1 kinase)?
**A.** The IC50 was < 1 µM.

**Q.** And the IC50 (Pim3 kinase)?
**A.** Its IC50 is < 1 µM.

**Q.** `Cc1nc(N)cc(-c2ccncc2NC(=O)c2nc(-c3cc(C(=O)NC(C)C)ccc3F)ccc2N)n1` [Example 273, 3-Amino-6-(2-fluoro-5-isopropylcarbamoyl-phenyl)-pyridine-2-carboxylic acid [4-(6-amino-2-methyl-pyrimidin-4-yl)-pyridin-3-yl]-amide] was tested. Which IC50 (Pim2 kinase) did it give?
**A.** The IC50 was < 1 µM.

**Q.** And the IC50 (Pim1 kinase)?
**A.** Its IC50 is < 1 µM.

**Q.** What about the IC50 (Pim3 kinase) of the same molecule?
**A.** Its IC50 is < 1 µM.

**Q.** `Cc1nc(N)cc(-c2ccncc2NC(=O)c2nc(-c3c(F)cccc3F)ccc2N)n1` [Example 274, 3-Amino-6-(2,6-difluoro-phenyl)-pyridine-2-carboxylic acid [4-(6-amino-2-methyl-pyrimidin-4-yl)-pyridin-3-yl]-amide] was tested. Which IC50 (Pim2 kinase) did it give?
**A.** Its IC50 is < 1 µM.

**Q.** And the IC50 (Pim1 kinase)?
**A.** The IC50 was < 1 µM.

**Q.** And the IC50 (Pim3 kinase)?
**A.** The IC50 was < 1 µM.

**Q.** Which results are given for `Nc1ccc(-c2c(F)cccc2F)nc1C(=O)Nc1cnccc1N1CC[C@@H](F)[C@H](N)C1` [Example 277, 3-Amino-6-(2,6-difluoro-phenyl)-pyridine-2-carboxylic acid (3-amino-4-fluoro-3,4,5,6-tetrahydro-2H-[1,4′]bipyridinyl-3′-yl)-amide]?
**A.** IC50 (Pim2 kinase): < 1 µM; IC50 (Pim1 kinase): < 1 µM; IC50 (Pim3 kinase): < 1 µM

**Q.** Which results are given for `Nc1ccc(-c2c(F)cccc2F)nc1C(=O)Nc1cnccc1N1CC(N)CC(CF)C1` (stereo not drawn) [Example 278, 3-Amino-6-(2,6-difluoro-phenyl)-pyridine-2-carboxylic acid (5-amino-3-fluoromethyl-3,4,5,6-tetrahydro-2H-[1,4′]bi-pyridinyl-3′-yl)-amide]?
**A.** IC50 (Pim2 kinase): < 1 µM; IC50 (Pim1 kinase): < 1 µM; IC50 (Pim3 kinase): < 1 µM

**Q.** Which results are given for `Nc1ccc(C2CCCCC2)nc1C(=O)Nc1cnccc1N1CC(N)CC(C(F)(F)F)C1` (stereo not drawn) [Example 279, 3-Amino-6-cyclohexyl-pyridine-2-carboxylic acid (3-amino-5-trifluoromethyl-3,4,5,6-tetra-hydro-2H-[1,4′]bipyridinyl-3′-yl)-amide]?
**A.** IC50 (Pim2 kinase): < 1 µM; IC50 (Pim1 kinase): < 1 µM; IC50 (Pim3 kinase): < 1 µM
